Laboratory results taken from patent US6916446B1, “Bioreactor method, apparatus and product thereby” (The United States of America as represented by the …, priority 2002, dated 2005).
Where “and” joins values, the source holds several entries; their conditions need not be identical. Equal entries are not always repeated. Where two headings read alike, the source gives them in different places.

Experiments:
[1] = system: strain IMB-1; test: Growth of strain IMB-1 on substrates in mineral salts medium (Balch tubes)
[2] = system: strain IMB-1; test: 14C-MeBr oxidation assay on washed cell suspensions; type: cell-based, strain IMB-1 (ATCC 202197); details: for MeBr oxidized: cells grown on the substrate indicated; for rate of MeBr oxidation, normalized for cell densities: cells grown on methylamine
[3] = system: strain IMB-1; test: Batch oxidation of MeBr in bottles containing cell suspensions of strain IMB-1; type: cell-based, strain IMB-1 (ATCC 202197); set-up: MeBr Oxidation Rate per Cell: unit not given here; details: for CO2 Production Rate: corrected for respiration
[4] = system: strain IMB-1; test: Closed-system re-circulating bioreactor with washed cell suspension of strain IMB-1; type: cell-based, strain IMB-1 (ATCC 202197)
Description: Procedures for forming the methylotrophic bacterium 18 within the bioreactor 10 include, for example and without limitation, strain IMB-1 being grown aerobically in batch mode using pulsed additions of MeBr for use as an inoculum for the bioreactor. Additions of MeBr from about 0.01 to about 0.1 g were made approximately daily for several weeks. Cells (1 L) were grown to elevated density (approximately 1.5×10^8 cells/cm^3) in stoppered, 2-L flasks with rotary shaking. Growth occurred in mineral salts media containing mono- and dibasic phosphate (ΣPO4^31 '=1.4 mM) as well as sulfate and trace minerals (see e.g. Schaefer, J. K. and R. S. Oremland, Oxidation of Methyl Halides by the Facultative Methylotroph Strain IMB-1. Appl. Environ. Microbiol. 65 (1999): pp 5035-5041) the disclosure of which is hereby incorporated by reference. Media concentrations were tripled in order to provide additional nutrients and buffer capacity. Cells were grown at about 28° C. Cells were washed and re-suspended to 0.5 L in fresh media and transferred to the gas-washing bottle of the bioreactor having an initial cell density approximately equal to 3×10^8 cells/cm^3. Once the methylotrophic bacterium 18 constitutes part of the biofilter 16, the methyl halide is pumped from the reservoir 14 to the biofilter 16 for direct oxidation.
The biofilter 16 includes a mass of methylotrophic bacteria 18 within a container for bio-degradation of the methyl halides 30. The biofilter 16 constitutes the active surface of the bioreactor 10. The initial cell density was 3×10^8 cells/cm^3. The peristaltic pump 12 was used to circulate the methyl halide 30 gas in this system at a flow rate of 0.2 liter/min through inert rubber tubing (Pharmed), manufactured by Cole Parmer of Vernon Hills, Ill., and having 0.4 cm I.D. Stainless steel tubing (0.4 cm I.D.) was used to connect the components of the bioreactor 10. Methane (CH4) was added (3.2 g/m^3) to serve as a control and an internal standard.
A closed-system bioreactor was built using the general design of FIG. 1 and employed for testing on a laboratory bench. The bioreactor was started with 0.5 L of growing culture of methylotrophic bacteria strain IMB-1 and removed MeBr at fumigation concentrations (>17 g/m^3) from re-circulating air. Strain IMB-1 grew to high cell densities (5×10^9 cells/cm^3) in the bioreactor within several days using pulsed additions of MeBr as the sole carbon and energy source. The addition of the MeBr was done as a gas. Bacterial oxidation of MeBr produced CO2 and hydrobromic acid (HBr) which could be neutralized by addition of NaOH. Strain IMB-1 was capable of sustained oxidation of large amounts of MeBr (16 g in 46 days). […] Oxidation of MeBr was unaffected by the presence of elevated dissolved solutes (>26 g/kg) that approached the salinity of seawater. Strain IMB-1 grown on MeBr was 7 times more efficient at removing MeBr from the headspace of flasks than cultures grown on glucose (55 vs. 8×10^−15 g MeBr/cell/hr, respectively). An open-system bioreactor having 10 L of growing culture used a continuous supply of MeBr (21.2 g/m^3 in air). Growth of strain IMB-1 was continuous and 80 g of MeBr was removed from the air supply in 15 days.

[5] = system: strain IMB-1; test: Open-system bioreactor, 10 L growing culture, continuous supply of MeBr; type: cell-based, strain IMB-1 (ATCC 202197); details: in 15 days; 21.2 g/m^3 MeBr in air, 10 L culture
From the text: The bioreactor may be designed to maximize the rate of oxidation of methyl bromide, particularly when using strain IMB-1. For example, without limitation, a twelve (12)-liter fermenter may be used to grow 10-L of cells of IMB-1 in batch culture for flow-through. Preferably, the fermenter is used in continuous-flow mode to grow IMB-1 using 21.2 g/m^3 MeBr as the feedstock. Use of strain 1 IMB-1 in a bioreactor is used in the present invention to directly oxidize various concentrations of the methyl halide, preferably methyl bromide or methyl iodide, for example without limitation high concentrations of approximately 30,000 ppm or 125 g/m^3. Direct oxidation of methyl bromide is most preferred.
A closed-system bioreactor was built using the general design of FIG. 1 and employed for testing on a laboratory bench. The bioreactor was started with 0.5 L of growing culture of methylotrophic bacteria strain IMB-1 and removed MeBr at fumigation concentrations (>17 g/m^3) from re-circulating air. Strain IMB-1 grew to high cell densities (5×10^9 cells/cm^3) in the bioreactor within several days using pulsed additions of MeBr as the sole carbon and energy source. The addition of the MeBr was done as a gas. Bacterial oxidation of MeBr produced CO2 and hydrobromic acid (HBr) which could be neutralized by addition of NaOH. […]

[6] = system: Bacillus anthracis (anthrax) and its spores; details: cited from earlier work
[7] = 0 cells
[8] = substrate as electron donor / carbon and energy source
[9] = 3 × 10^7 cells/cm^3, 0.76 mg MeBr added
[10] = 3 × 10^7 cells/cm^3, 1.36 mg MeBr added
[11] = 3 × 10^7 cells/cm^3, 5.30 mg MeBr added
[12] = 3 × 10^8 cells/cm^3, 0.76 mg MeBr added
[13] = 3 × 10^8 cells/cm^3, 1.36 mg MeBr added
[14] = 3 × 10^8 cells/cm^3, 5.30 mg MeBr added
[15] = 3 × 10^9 cells/cm^3, 0.76 mg MeBr added
[16] = 3 × 10^9 cells/cm^3, 1.36 mg MeBr added
[17] = 3 × 10^9 cells/cm^3, 5.30 mg MeBr added

O=C(O)/C=C/C(=O)O [fumarate]
growth of strain IMB-1 on the substrate (in words) [1, 8]: no growth occurred

CNC [dimethylamine]
growth of strain IMB-1 on the substrate (in words) [1]: support growth

CF [methyl fluoride]
MeBr oxidized [2]: 0.0 pmol/10^6 cells/h
metabolized by strain IMB-1 [1]: not metabolized
effect on uptake of MeBr or growth of IMB-1 on MeBr ([1]; 2-22 μmol/tube added): did not affect
growth of strain IMB-1 on the substrate (in words) [1, 8]: no growth occurred

C [methane]
growth of strain IMB-1 on the substrate (in words) [1, 8]: no growth occurred

O=C(O)CC(O)C(=O)O (stereo not shown) [malate]
growth of strain IMB-1 on the substrate (in words) [1, 8]: weak growth

CN [monomethylamine]
growth of strain IMB-1 on the substrate (in words) [1, 8]: support growth

CBr [MeBr, methyl bromide]
MeBr oxidized [2]: 1.4 pmol/10^6 cells/h
time to removal of MeBr ([3]; 0.76 mg (1.2 mM in the liquid), bottles containing 1.5×10^8 cells): ≤ 190 h
time to removal of MeBr ([3]; 0.76 mg, bottles containing 10-fold more cells): ≤ 35 h
time to removal of MeBr ([3]; 0.76 mg, bottles containing 100-fold more cells (3×10^9 cells/cm^3)): ≤ 2 h
time to oxidation of MeBr ([3]; 1.2 mM in the liquid, cells grown on MeBr (2.8×10^8 cells)): within one hour
time to remove a similar amount of MeBr ([3]; 1.2 mM in the liquid, glucose-grown cells (3.6×10^8 cells)): greater than 5 hours
time to removal of MeBr ([3]; 1.36 mg MeBr, 3×10^9 cells/cm^3): ≤ 7 h
MeBr Oxidation Rate [3, 9]: 0.063 mg/day
MeBr Oxidation Rate Constant [3, 9]: 0.083 per d
MeBr Oxidation Rate per Cell [3, 9]: 4.1 ×10^10
CO2 Production Rate [3, 9]: 0.031 mg/day
MeBr Oxidation Rate [3, 10]: 0 mg/day
MeBr Oxidation Rate Constant [3, 10]: 0 per d
MeBr Oxidation Rate per Cell [3, 10]: 0 ×10^10
CO2 Production Rate [3, 10]: 0.002 mg/day
MeBr Oxidation Rate [3, 11]: 0 mg/day
MeBr Oxidation Rate Constant [3, 11]: 0 per d
MeBr Oxidation Rate per Cell [3, 11]: 0 ×10^10
CO2 Production Rate [3, 11]: 0 mg/day
MeBr Oxidation Rate [3, 12]: 0.555 mg/day
MeBr Oxidation Rate Constant [3, 12]: 0.73 per d
MeBr Oxidation Rate per Cell [3, 12]: 3.7 ×10^10
CO2 Production Rate [3, 12]: 0.224 mg/day
MeBr Oxidation Rate [3, 13]: 0.180 mg/day
MeBr Oxidation Rate Constant [3, 13]: 0.13 per d
MeBr Oxidation Rate per Cell [3, 13]: 1.2 ×10^10
CO2 Production Rate [3, 13]: 0.189 mg/day
MeBr Oxidation Rate [3, 14]: 0 mg/day
MeBr Oxidation Rate Constant [3, 14]: 0 per d
MeBr Oxidation Rate per Cell [3, 14]: 0 ×10^10
CO2 Production Rate [3, 14]: 0 mg/day
MeBr Oxidation Rate [3, 15]: 6.53 mg/day
MeBr Oxidation Rate Constant [3, 15]: 8.6 per d
MeBr Oxidation Rate per Cell [3, 15]: 4.4 ×10^10
CO2 Production Rate [3, 15]: 5.025 mg/day
MeBr Oxidation Rate [3, 16]: 3.52 mg/day
MeBr Oxidation Rate Constant [3, 16]: 2.59 per d
MeBr Oxidation Rate per Cell [3, 16]: 2.3 ×10^10
CO2 Production Rate [3, 16]: 1.990 mg/day
MeBr Oxidation Rate [3, 17]: 6.07 mg/day
MeBr Oxidation Rate Constant [3, 17]: 1.14 per d
MeBr Oxidation Rate per Cell [3, 17]: 4.0 ×10^10
CO2 Production Rate [3, 17]: 2.696 mg/day
MeBr removal from the headspace of flasks per cell ([3]; cultures grown on glucose): 8 ×10^−15 g MeBr/cell/hr
MeBr removal from the headspace of flasks per cell ([3]; strain IMB-1 grown on MeBr): 55 ×10^−15 g MeBr/cell/hr
time to consumption of added MeBr ([4]; 0.21 g added MeBr, by the third day of operation): ≤ 4 h
reduction of methyl bromide concentration during a single pass through the filter ([4]; after 2 weeks operation): up to 5 g/m^3
time to removal of all added MeBr ([4]; after several equivalent additions of 9 g/m^3 MeBr): approximately 6 hours
time to removal of added MeBr ([4]; first addition of 0.21 g MeBr): 24 h
amount of MeBr oxidized ([4]; in 46 days, pulses of 0.21 g up to three times a day): 16 g and 16.2 g
time to oxidation of initial levels of methyl bromide ([4]; initial 9 g/m^3, washed cell suspensions): ≤ 24 h
amount of MeBr removed from the air supply [5]: 80 g
killing of B. anthracis and its spores ([6]; Kolb and Schneiter 1950): kill
level at which methyl bromide functions as a microbicide and a pesticide ([6]; Schade and King 1977, tree nuts): about 25,000 ppm
CO2 Production Rate ([7]; 0.76 mg MeBr added): 0 mg/day
MeBr Oxidation Rate ([7]; 0.76 mg MeBr added): 0.029 mg/day
CO2 Production Rate ([7]; 1.36 mg MeBr added): 0 mg/day
MeBr Oxidation Rate ([7]; 1.36 mg MeBr added): 0.062 mg/day
CO2 Production Rate ([7]; 5.30 mg MeBr added): 0 mg/day
MeBr Oxidation Rate ([7]; 5.30 mg MeBr added): 0.208 mg/day
growth of strain IMB-1 on the substrate (in words) [1, 8]: grow using MeBr as a sole source of carbon and energy

O=CO [formate]
growth of strain IMB-1 on the substrate (in words) [1]: no growth occurred

O=C(O)CC(O)(CC(=O)O)C(=O)O [citrate]
growth of strain IMB-1 on the substrate (in words) [1, 8]: no growth occurred

CI [methyl iodide]
rate of MeBr oxidation, normalized for cell densities ([2]; cultures incubated with 2 μmoles Mel): 1.4 pmol/10^6 cells/h
rate of MeBr oxidation, normalized for cell densities ([2]; cultures incubated with 5 μmoles Mel): 1.1 pmol/10^6 cells/h
rate of MeBr oxidation, normalized for cell densities ([2]; cultures incubated with 8 μmoles Mel): 1.1 pmol/10^6 cells/h
rate of MeBr oxidation, normalized for cell densities ([2]; cultures incubated with 10 μmoles Mel): 1.4 pmol/10^6 cells/h
MeBr oxidized [2]: 2.4 pmol/10^6 cells/h
growth of strain IMB-1 on the substrate (in words) [1, 8]: Growth was also obtained

CN(C)C [trimethylamine]
growth of strain IMB-1 on the substrate (in words) [1, 8]: support growth

CO [methanol]
growth of strain IMB-1 on the substrate (in words) [1, 8]: no growth occurred

O=C(O)CCC(=O)O [succinate]
growth of strain IMB-1 on the substrate (in words) [1, 8]: no growth occurred

CC(=O)O [acetate]
growth of strain IMB-1 on the substrate (in words) [1]: grows
